Where only a bound is given, the exact number is not on record here.

For this assay, the system named is LXRα and/or LXRβ. Put plainly: LXR/LXRE co-transfection assay (luciferase reporter, CV-1 cells). The format is cell-based, human. As to conditions: IC50 or EC50 for LXR (LXRα and/or LXRβ, not distinguished), tested as described in Example 109, CV-1 cells. The source says:
To measure the ability of compounds to activate or inhibit the transcriptional activity of LXR in a cell based assay, the co-transfection assay was used. It has been shown that LXR functions as a heterodimer with RXR. For the co-transfection assay; expression plasmids for LXR and RXR are introduced via transient transfection into mammalian cells along with a luciferase reporter plasmid that contains one copy of a DNA sequence that is bound by LXR-RXR heterodimers (LXRE; Willy, P. ad. 1995). Treatment of transfected cells with an LXR agonist increases the transcriptional activity of LXR, which is measured by an increase in luciferase activity.
CV-1 African Green Monkey Kidney Cells Co-transfection expression plasmids, comprising full-length LXRα (pCMX-h LXRα, LXRβ (pCMX-hLXRβ), or RXRα (pCMX-RXR), reporter plasmid (LXREx1-Tk-Luciferase), and control (pCMX-Galactosidase expression vector) (Willey et al. Genes & Development 91033-1045 (1995)). Transfection reagent such as FuGENE6 (Roche). 1× Cell lysis buffer (1% Triton X 100 (IT Baker X200-07), 10% Glycerol (JT Baker M778-07), 5 mM Ditriotreitol (Quantum Bioprobe DTT03; add fresh before lysing), 1 mM EGTA (Ethylene Glycol-bis(B-Amino ethyl ether)-N,N,N′,N′-Tetracetic Acid) (Sigma E-4378), 25 mM Tricine (ICN 807420) pH 7.8) 1× Luciferase assay buffer (pH at 7.8) (0.73 mM ATP, 22.3 mM Tricine, 0.11 mM EDTA, 33.3 mM DTT) 1× Luciferrin/CoA (11 mM Luciferin, 3.05 mM Coenzyme A, 10 mM HEPES) Preparation of Screening Reagents
CV-1 cells were prepared 24 hours prior to the experiment by plating them into T-175 flasks or 500 cm^2 dishes in order to achieve 70-80% confluency on the day of the transfection. The number of cells to be transfected was determined by the number of plates to be screened. each 384 well plate requires 1.92×10^6 cells or 5000 cells per well. DNA Transfection Reagent was prepared by mixing the required plasmid DNAs with a cationic lipid transfection reagent FuGENE6 (Roche) by following the instructions provided with the reagents. Optimal DNA amounts were determined empirically per cell line and size of vessel to be transfected. 10-12 mL of media was added to the DNA Transfection Reagent and this mixture was added to the cells after aspirating media from the T175 cm^2 flask. Cells were then incubated at least 5 hours at 37° C. to prepare screening cells.
Luciferase assay reagent was prepared by combining before use (per 10 mL): […], 0.54 mL of 1× Luciferrin/CoA; 0.54 mL of 0.2 M Magnesium sulfate
Assay plates were prepared by dispensing 5 μL of compound per well of a 384 well plate to achieve final compound concentration of 10 μM and no more than 1% DMSO. Media was removed from the screening cells, the cells trypsinized, harvested cells by centrifugation, counted, and plated at a density of approximately 5000 cells per well in the 384 well assay plate prepared above in a volume of about 45 μL. Assay plates containing both compounds and screening cells (50 μL in total volume) were incubated for 20 hours at 37° C.
After incubation with compounds, media was removed from the cells and lysis buffer (30 μL/well) added. After 30 minutes at ambient temperature, luciferase assay buffer (30 μL/well) was added and the assay plates read on a luminometer (PE Biosystems Northstar reader with on-board injectors, or equivalent). Plates were read immediately after addition of luciferase assay buffer.
The LXR/LXRE co-transfection assay can be used to establish the EC50/IC50 values for potency and percent activity or inhibition for efficacy. Efficacy defines the activity of a compound relative to a high control ((N-(3-((4-fluorophenyl)-(naphthalene-2-sulfonyl)amino)propyl)-2,2-dimethylpropionamide)) or a low control (DMSO/vehicle). The dose response curves are generated from an 8 point curve with concentrations differing by ½ LOG units. each point represents the average of 4 wells of data from a 384 well plate. […]
“1-(5-(1-(2-chlorophenyl)-3-(trifluoromethyl)-1H-pyrazol-5-yl)thiophen-2-ylsulfonyl)-4-methylpiperazine [Example 69]” showed a half-maximal effective concentration (EC50) of less than 1000 nM.

Take “2-[1-(2-chlorophenyl)-5-{5-[3-(methylsulfonyl)phenyl]pyridin-2-yl}-1H-pyrazol-3-yl]propan-2-ol [Example 79]”: the EC50 is more than 10000 nM.

Molecule `CC(C)(O)c1nn(-c2ccccc2F)c(-c2ccc(-c3cccc(S(C)(=O)=O)c3)s2)c1Cl` [Example 23] yielded an EC50 of less than 1000 nM.

The molecule `CC(C)(O)c1cc(-c2sc(-c3cccc(S(C)(=O)=O)c3)cc2Br)n(-c2cccc(F)c2C(F)(F)F)n1` [Example 49, 2-(5-(3-bromo-5-(3-(methylsulfonyl)phenyl)thiophen-2-yl)-1-(3-fluoro-2-(trifluoromethyl)phenyl)-1H-pyrazol-3-yl)propan-2-ol] came in with a concentration giving a half-maximal response (EC50) of less than 1000 nM.

Regarding `FC(F)(F)c1cc(-c2cccc(OCCN3CCOCC3)c2)n(-c2ccccc2Cl)n1` [Example 67, 4-(2-(3-(1-(2-chlorophenyl)-3-(trifluoromethyl)-1H-pyrazol-5-yl)phenoxy)-ethyl)morpholine], the EC50 was in the range of 1000 to 10000 nM.

`CS(=O)(=O)c1cccc(Oc2ccc(-c3cc(C(F)(F)F)nn3-c3ccccc3Cl)cc2)c1` [Example 68, 1-(2-chlorophenyl)-5-(4-{[3-(methylsulfonyl)phenyl]oxy}phenyl)-3-(trifluoromethyl)-1H-pyrazole] came in with an EC50 of less than 1000 nM.

Regarding `CC(C)(O)c1cc(-c2ccc(C(=O)N3CCC3)cc2)n(-c2ccccc2Cl)n1` [Example 80], the EC50 was more than 10000 nM.

`CC(C)(O)c1cc(-c2cccc(Cl)c2Cl)n(-c2ccc(-c3cccc(S(C)(=O)=O)c3)cc2)n1` [Example 106, 2-(5-(2,3-dichlorophenyl)-1-(3′-(methylsulfonyl)biphenyl-4-yl)-1H-pyrazol-3-yl)propan-2-ol] yielded an EC50 of 1000 to 10000 nM.

Turning to `Cc1cc(-c2cccc(S(C)(=O)=O)c2)ccc1-c1c(Cl)c(C(C)(C)O)nn1-c1cnccc1C(F)(F)F` [Example 107, 2-(4-chloro-5-(3-methyl-3′-(methylsulfonyl)biphenyl-4-yl)-1-(4-(trifluoromethyl)pyridin-3-yl)-1H-pyrazol-3-yl)propan-2-ol], the half-maximal effective concentration (EC50) was less than 1000 nM.

As to `CC(C)(O)c1cc(-c2ccc(-c3cccc(S(C)(=O)=O)c3)cc2)n(-c2cnccc2C(F)(F)F)n1` [Example 108, 2-(5-(3′-(methylsulfonyl)biphenyl-4-yl)-1-(4-(trifluoromethyl)pyridin-3-yl)-1H-pyrazol-3-yl)propan-2-ol], the EC50 lay in the range of 1000 to 10000 nM.

The molecule `CC(C)(O)c1nn(-c2cnccc2C(F)(F)F)c(-c2ccc(-c3cccc(S(C)(=O)=O)c3)cc2)c1Cl` [Example 109, 2-(4-chloro-5-(3′-(methylsulfonyl)biphenyl-4-yl)-1-(4-(trifluoromethyl)pyridin-3-yl)-1H-pyrazol-3-yl)propan-2-ol] gave an EC50 of 1000 to 10000 nM.

`CC(C)(O)c1nn(-c2ccc(-c3cccc(S(C)(=O)=O)c3)cc2)c(-c2ccccc2Cl)c1Cl` [Example 110, 2-(4-chloro-5-(2-chlorophenyl)-1-(3′-(methylsulfonyl)biphenyl-4-yl)-1H-pyrazol-3-yl)propan-2-ol] came in with an EC50 of less than 1000 nM.

In turn, `CC(C)(O)c1cc(-c2ccc(-c3cccc(S(C)(=O)=O)c3)s2)n(-c2ccncc2Cl)n1` [Example 112, 2-(1-(3-chloropyridin-4-yl)-5-(5-(3-(methylsulfonyl)phenyl)thiophen-2-yl)-1H-pyrazol-3-yl)propan-2-ol] gave an EC50 of 1000 to 10000 nM.

On to `Cc1cc(-c2cccc(S(C)(=O)=O)c2)ccc1-n1nc(C(C)(C)O)cc1-c1ccccc1Cl` [Example 113, 2-(5-(2-chlorophenyl)-1-(3-methyl-3′-(methylsulfonyl)biphenyl-4-)-1H-pyrazol-3-yl)propan-2-ol], for which the EC50 is less than 1000 nM.

As to `CC(C)(O)c1cc(-c2ccccc2Cl)n(-c2ccc(-c3cccc(S(C)(=O)=O)c3)cc2Cl)n1` [Example 114, 2-(1-(3-chloro-3′-(methylsulfonyl)biphenyl-4-yl)-5-(2-chlorophenyl)-1H-pyrazol-3-yl)propan-2-ol], the EC50 was less than 1000 nM.

Consider `Cc1cc(-c2cccc(S(C)(=O)=O)c2)ccc1-n1nc(C(C)(C)O)cc1-c1c(F)cccc1Cl` [Example 115, 2-(5-(2-chloro-6-fluorophenyl)-1-(3-methyl-3′-(methylsulfonyl)biphenyl-4-yl)-1H-pyrazol-3-yl)propan-2-ol], for which the concentration giving a half-maximal response (EC50) was less than 1000 nM.

Regarding `Cc1cc(-c2cccc(S(C)(=O)=O)c2)ccc1-n1nc(C(C)(C)O)cc1-c1cccc(F)c1F` [Example 116, 2-(5-(2,3-difluorophenyl)-1-(3-methyl-3′-(methylsulfonyl)biphenyl-4-yl)-1H-pyrazol-3-yl)propan-2-ol], the EC50 was less than 1000 nM.

Molecule `CC(C)(O)c1cc(-c2ccc(-c3cccc(S(C)(=O)=O)c3)cc2Cl)n(-c2cnccc2C(F)(F)F)n1` [Example 117, 2-(5-(3-chloro-3′-(methylsulfonyl)biphenyl-4-yl)-1-(4-(trifluoromethyl)pyridin-3-yl)-1H-pyrazol-3-yl)propan-2-ol] registered an EC50 of 1000 to 10000 nM.

For `COC(=O)c1cc(-c2ccc(-c3cccc(S(C)(=O)=O)c3)cn2)n(-c2ccccc2Cl)n1` [Example 118, methyl 1-(2-chlorophenyl)-5-(5-(3-(methylsulfonyl)phenyl)pyridin-2-yl)-1H-pyrazole-3-carboxylate], the EC50 was less than 1000 nM.

For `CC(C)(O)c1cc(-c2ccc(-c3cccc(S(C)(=O)=O)c3)cn2)n(-c2ccccc2Cl)n1` [Example 119, 2-(1-(2-chlorophenyl)-5-(5-(3-(methylsulfonyl)phenyl)pyridin-2-yl)-1H-pyrazol-3-yl)propan-2-ol], the EC50 is 1000 to 10000 nM.

For `CC(C)(O)c1cc(-c2c(F)cccc2Cl)n(-c2ccc(-c3cccc(S(C)(=O)=O)c3)cc2F)n1` [Example 120, 2-(5-(2-chloro-6-fluorophenyl)-1-(3-fluoro-3′-(methylsulfonyl)biphenyl-4-yl)-1H-pyrazol-3-yl)propan-2-ol], the half-maximal effective concentration (EC50) is less than 1000 nM.

As to `CC(C)(O)c1cc(-c2cccc(F)c2F)n(-c2ccc(-c3cccc(S(C)(=O)=O)c3)cc2F)n1` [Example 121, 2-(5-(2,3-difluorophenyl)-1-(3-fluoro-3′-(methylsulfonyl)biphenyl-4-yl)-1H-pyrazol-3-yl)propan-2-ol], the concentration giving a half-maximal response (EC50) was 1000 to 10000 nM.

On to `Cc1cc(-c2cccc(S(C)(=O)=O)c2)ccc1-n1nc(C(C)(C)O)cc1-c1c(Cl)cccc1Cl` [Example 122, 2-(5-(2,6-dichlorophenyl)-1-(3-methyl-3′-(methylsulfonyl)biphenyl-4-yl)-1H-pyrazol-3-yl)propan-2-ol], for which the EC50 is less than 1000 nM.

For `C=C(C)c1cc(-c2ccc(-c3cccc(S(C)(=O)=O)c3)s2)n(-c2ccccc2Cl)n1` [Example 123, 1-(2-chlorophenyl)-5-(5-(3-(methylsulfonyl)phenyl)thiophen-2-yl)-3-(prop-1-en-2-yl)-1H-pyrazole], the EC50 was less than 1000 nM.

`CC(C)(O)c1cc(-c2c(Cl)cccc2Cl)n(-c2ccc(-c3cccc(S(C)(=O)=O)c3)cc2Cl)n1` [Example 124, 2-(1-(3-chloro-3′-(methylsulfonyl)nbiphenyl-4-yl)-5-(2,6-dichlorophenyl)-1H-pyrazol-3-yl)propan-2-ol] yielded an EC50 of less than 1000 nM.

For the origin of these results see US8703805B2 (Exelixis Patent Company LLC, priority 2005, dated 2014).
